Results on 5 compounds are retold here after patent US20240122939A1, “THERAPIES FOR THE TREATMENT OF DISEASES AND DISORDERS ASSOCIATED WITH ABNORMAL EXPRESSION OF CDKL5 GENE” (THE REGENTS OF THE UNIVERSITY OF CALIFORNIA, priority 2021, published 2024).

For one series, the system named is CDD spheres. The experiment in a line: Cellular migration after drug treatment (outward radial migration from plated spheres). The note with it: 1 μM, spheres treated for 3 weeks, migration evaluated 8 days after plating. Type of series: cell-based, human. How it is done:
Cellular migration. Three-week old spheres were treated for 3 additional weeks with 1 μM of selected compounds. Cellular migration was evaluated 8 days after spheres were plated onto poly-L-ornithine/laminin-coated plates. The outward radial migration was measured using NeuronJ plugin on the Fiji platform. Next, these lead compounds were investigated for their ability to ameliorate CDD cellular phenotype. Following a similar pharmacological strategy, spheres were treated for 3 weeks, and cellular migration was evaluated after plating.

The subject of series [1] is CDD spheroids (cortical neurons and astrocytes derived from human iPSCs). Description: HT calcium oscillation assay in CDD spheroids (high throughput screening, Scalar Perturbation and Parameter Recovery analysis). The format is cell-based. Particulars: for SP ranking (Scalar Perturbation): smaller SP = closer to control; for EC50: Homo sapiens, iPSC, six concentrations 0.0003 to 1 μM, nonlinear regression fit, n=4 spheroids per concentration, read-out: EC50 (dose-response of Parameter Recovery percentage). The source says:
CDD High Throughput Screening (HTS) platform development. An HTS platform for CDD was developed. Briefly, the HTS system relies on spheroids derived from human iPSCs that comprise a balanced culture of cortical neurons and astrocytes. These spheroids display quantifiable, robust and uniform spontaneous calcium oscillations which correlated with synchronous neuronal activity. The CDD HTS platform uses cells derived from CDD1 and Controll lines.
Chemical library and drug treatment. The compound library used in this study comprises a unique collection of 1112 compounds with biological activity used for neurologic research and associated assays; of which two-thirds are FDA-approved drugs (SelleckChem, Houston, TX, USA). Three-week-old CDD spheroids received chronic treatment three-times per week, during three weeks. All compounds were tested at 1 μM in three technical replicates; vehicle controls (DMSO or water) were included in multiple replicates. The dose-response assay comprehended six concentrations ranging from 0.0003 to 1 μM, in four technical replicates.
HT Calcium oscillation assay. To assess the intracellular calcium oscillations in CDD and control cortical spheroids, cells were incubated with the FLIPR Calcium 6 Kit (Molecular Devices LLC, San Jose, CA, USA). Briefly, cells were pre-loaded with Calcium 6 Dye for 2 h prior to the recording. The dye interacts with intracellular calcium and changes in fluorescence occur according to increased or decreased calcium concentration. The peaks observed correlate with synchronous neural activity in the spheroids. The kinetics of intracellular calcium oscillations was determined using the FLIPR Tetra High-Throughput Cellular Screening System (Molecular Devices LLC): the fluorescence intensity was set at 515-575 nm following excitation at 470-495 nm for 10 min at a frequency of 3 Hz; the exposure time per read was 0.4 s, the gain was set to 30, and the excitation intensity was set to 40%. The instrument temperature was kept at 37° C.
HT screening analysis. A multiparametric analysis of representative descriptors of the intracellular calcium oscillation was performed. The features used include: 1. Peak count; 2. Average (Avg) Peak Height (Amplitude); 3. Peak Height standard deviation (s.d.); 4. Avg Peak Width, 5. Peak Width s.d.; 6. Avg Peak Spacing; 7. Peak Spacing s.d.; 8. Avg Peak Rise Time; 9. Peak Rise Time s.d.; 10. Avg Peak Decay Time; 11. Peak Decay Time s.d.; 12. Class 1 Peak Count; 13. Class 2 Peak Cound; 14. Class 3 Peak Count; 15. Singular Peak Count; 16. Irregular Peak Count, and 17. Subpeak Count. For peak classification, Class 1 Peak display 100-66% of max peak height, while Class 2 and Class 3, 66-33% and 33-15%, respectively. To determine the Scalar Perturbation, the data was normalized by dividing raw parameters by the median values of controls from the same plate. Each parameter was standardized by z-score of normalized and log-transformed control values. Next, the Euclidean norm between selected parameters was calculated and averaged the Scalar Perturbation score among replicates. In the Parameter Recovery, max/min boundaries from vehicle Control were determined from corresponding plate. For each replicate, we summed the number of parameter found to be within the max/min boundaries of the Control. Next, for each replicate we divided the sum of the recovered parameter by the total number of parameters and established the percentage of parameters recovered to the Control boundaries and, averaged Parameter Recovery percentages between compound replicates.
Next, a unique library of 1112 neuronal signaling compounds was screened by chronically treating 3-week-old CDD spheroids in triplicate at 1 μM for 3 weeks (FIG. 5D; FIG. 10). The calcium peaks' baseline features were determined solely in the presence of each vehicle (DMSO or water) to avoid any confounding effect on the oscillatory activity (FIG. 5E and FIG. 10A-D). […]

The subject of another series is CDD spheroids. The experiment in a line: HT cell viability (CellTiter Glo 3D Cell Viability Assay). Type of series: cell-based, human. The note with it: 1 μM, 3 weeks treatment, CDD spheroids at 6 weeks of differentiation. Here is the method: HT cell viability. To determine any cytotoxic effect of the drug treatment on the neural culture, the CellTiter Glo 3D Cell Viability Assay (Promega, Madison, WI, USA) was performed according to the manufacturer's instructions. Briefly, following the intracellular calcium oscillation recording, the spheroids were extensively washed with PBS for removal of the calcium dye. Next, cells were incubated with CellTiter Glo Reagent for 30 min at room temperature and the number of viable cells was estimated based on the amount of ATP present in the culture. The luminescent signal was captured using a PHERAstar FSX Microplate Reader (BMG Labtech, Ortenberg, Germany).
Next, a unique library of 1112 neuronal signaling compounds was screened by chronically treating 3-week-old CDD spheroids in triplicate at 1 μM for 3 weeks (FIG. 5D; FIG. 10). The calcium peaks' baseline features were determined solely in the presence of each vehicle (DMSO or water) to avoid any confounding effect on the oscillatory activity (FIG. 5E and FIG. 10A-D). Similarly, the result from each compound was normalized against its vehicle control (DMSO or water). To detect potential toxic effects of specific drugs, spheroid size and cell viability were monitored (FIG. 5F-G).

Series [2] concerns Cdkl5 knockout mouse neurons. Particulars: cited from earlier work.
[3] abbreviates: 1112 compounds screened at 1 μM, chronic treatment for 3 weeks, 3-week-old CDD spheroids.

As for `N#Cc1ccc2[nH]c(O)c(-c3ccc(CN4CCOCC4)cn3)c2c1` [AZD1080], the “rescue of outward radial cellular migration defects in CDD” value (“rescue” below) in the series on CDD spheres was “able to rescue outward radial cellular migration defects”. Also, the “SP ranking (Scalar Perturbation)” value in series [1] (setting [3]) is given as 12. For the same compound, in the series with CDD spheroids, the “effect on cell viability” value is recorded as “no effect on cell viability”.
For the compound `C[C@H](NC(=O)CCC(F)(F)F)C(=O)N[C@@H]1C(=O)N(CCO)c2ncccc2-c2ccccc21` [Crenigacestat], in the series on CDD spheres, the “rescue” value is on record as “able to rescue outward radial cellular migration defects”. Moreover, the “SP ranking (Scalar Perturbation)” value in series [1] (setting [3]) was 5. In addition, the EC50 in series [1] was found to be 883 nM. The “effect on cell viability” value with CDD spheroids is “no effect on cell viability”.
As for `COc1ccc2c(c1)[nH]c1c(C)nccc12` [Harmine], in series [2], the “restoration of CDKL5-dependent synaptic defects” value is “restore CDKL5-dependent synaptic defects”. The “PR ranking (Parameter Recovery)” value in series [1] (1112 compounds screened at 1 μM, chronic treatment for 3 weeks, 3-week-old CDD spheroids, higher PR = closer to control) is “second”. For the same compound, in series [1] (setting [3]), the “SP ranking (Scalar Perturbation)” value is “first”. In addition, the “effect on cell viability” value with CDD spheroids is listed as “excluded from the list of top candidates due to its effect on cell survival”.
In the case of `COc1cc2c(cc1OC)CC(=O)N(CCCN(C)C[C@H]1Cc3cc(OC)c(OC)cc31)CC2` [Ivabradine], the “rescue” value with CDD spheres was “able to rescue outward radial cellular migration defects”. The “SP ranking (Scalar Perturbation)” value in series [1] (setting [3]) amounted to 10. The EC50 in series [1] was determined as 41 nM. Also, the “effect on cell viability” value with CDD spheroids is on record as “no effect on cell viability”.
Take `O=C(O[C@H]1CN2CCC1CC2)N1CCc2ccccc2[C@@H]1c1ccccc1` [Solifenacin]: the “rescue” value in the series on CDD spheres was “able to rescue outward radial cellular migration defects”. In addition, the “SP ranking (Scalar Perturbation)” value in series [1] (setting [3]) was 28. In addition, the “effect on cell viability” value with CDD spheroids is “no effect on cell viability”.
